Where two headings read alike, the source gives them in different places.
Experiments:
[1] = system: Cultured human HepG2 cells; conditions: harvested after 24 h, ref Zhou et al. (2007a), cited from earlier work
Mouse liver CD-1 = conditions: cited from earlier work; for pmol Adduct/mg DNA: female, livers 24 h after treatment
New born mice B6C3F1 = conditions: 30.8 mg/kg bw i.p., male, injections on days 1, 8, 15, 22 after birth; ref Phillips et al. (1984); cited from earlier work
[2] = system: freshly isolated rat hepatocytes in primary culture; conditions: 10^−6 to 10^−3 M; ref Howes et al. [1990]; cited from earlier work
experimental animals = conditions: tumor formation; ref van den Berg et al. [2011]; cited from earlier work
rats or mice = conditions: chronic oral exposure to high doses, or male CD-1 mice preweaning; ref Borchert et al. [1973]; Drinkwater et al. [1976]; National Toxicology [2000]; cited from earlier work
DNA = conditions: ref Zhou et al. [2007a]; Kobets et al. [2016]; Phillips et al. [1984]; Randerath et al. [1984]; cited from earlier work
[3] = Margin of exposure (MOE) risk assessment; conditions: BMDL10 of safrole; estimated daily intake of safrole 0.001 mg/kg bw per day from spice and spice oil in the USA
From the text: The margin-of-exposure (MOE) concept was applied to assess the possible risks for human health resulting from the daily exposure to myristicin (JECFA [2005]; EFSA [2005]; Barlow et al. [2006]; O’Brien et al. [2006]). The MOE is a dimensionless ratio based on a reference point representing a dose causing a low but measurable cancer incidence in experimental animals (e.g., a BMDL10), which is divided by the estimated daily intake in humans (EFSA [2005]). […] The estimated daily intake of safrole from spice and spice oil in the USA amounts to 0.001 mg/kg bw per day (WHO [2009]).

[4] = Sulfonation of 1′-hydroxymyristicin, male rat liver S9; assay type: in vitro ADME
Protocol: (§1) The formation of 1′-sulfoxymyristicin was determined using incubations containing male rat liver Sprague–Dawley or pooled gender human liver S9 proteins, PAPS as a cofactor, and GSH, which acts as a scavenger of the reactive carbocation formed due to the unstable nature of the 1′-sulfoxy metabolite in an aqueous environment (van den Berg et al. [2012]; Martati et al. [2011]; Al-Subeihi et al. [2011]). Incubation mixtures containing (final concentrations) 10 mM of GSH, 0.2 mM of PAPS, and 3 mg/ml of S9 proteins in 0.1 M potassium phosphate (pH 8.2) were pre-incubated for 1 min at 37 °C. After the pre-incubation, 1′-hydroxymyristicin dissolved in DMSO was added in final concentrations ranging between 10 and 6000 μM while keeping the final content of DMSO at 1 % (v/v). The reaction was terminated after 360 min of incubation by adding 25 μl (0.25 times the incubation volume) of ice-cold ACN. The formation of the GSH conjugate of 1′-sulfoxymyristicin was linear with time and S9 protein concentrations under the experimental conditions used. Blank incubations were performed in the absence of PAPS. Incubations were performed in triplicate. All samples were centrifuged for 5 min at 16,000×g, and the supernatant was stored at −20 °C until ultra-performance liquid chromatography (UPLC) analysis.
(§2) Quantification of 1′-sulfoxymyristicin was done using UPLC analysis as described for the estimation of 1′-sulfoxysafrole (Martati et al. [2011]). […] The gradient for analysis of the metabolite consisted of a mixture of ACN and ultrapure water containing 0.1 % (v/v) TFA. The flow rate was 0.6 ml/min, starting at 0 % ACN and increasing the percentage of ACN to 20 % over 0.2 min, followed by an increase to 30 % ACN over 4.3 min, then increasing to 100 % over 0.3 min, and keeping it at 100 % for 0.2 min, and finally decreasing to 0 % over 0.2 min and keeping it at 0 % for 0.8 min. Separation and purification of the GSH adduct of 1′-sulfoxymyristicin was performed by collecting the peak of the metabolite from the UPLC column. […]

[5] = Sulfonation of 1′-hydroxymyristicin, human liver S9; assay type: in vitro ADME
Protocol: as §1, §2

[6] = S9 protein yield 143 mg/g liver

Row | SMILES | pmol Adduct/mg DNA ([1]; 150 uM) | pmol Adduct/mg DNA ([1]; 450 uM) | pmol Adduct/mg DNA (Mouse liver CD-1; 80 mg/kg bw i.p., ref Randerath et al. (1984)) | pmol Adduct/mg DNA (Mouse liver CD-1; 400 mg/kg bw i.p., ref Randerath et al. (1984)) | DNA adduct after 140 days (persistence) (Mouse liver CD-1; 400 mg/kg bw safrole, liver 140 days after treatment, ref Randerath et al. (1984)) | DNA adduct formation in the liver, times higher for safrole than myristicin (Mouse liver CD-1; mice, i.p. injection, ref Randerath et al. [1984]) | pmol Adduct/mg DNA (New born mice B6C3F1) | cytotoxicity [2] | unscheduled DNA synthesis (UDS) [2] | BMDL10 (experimental animals) | induction of hepatic tumors (rats or mice) | DNA adduct formation, result (DNA) | MOE [3] | k, first-order rate constant for product formation ([4]; S9, PAPS, GSH trapping) | k Scaled [4, 6] | k, first-order rate constant for product formation ([5]; S9, PAPS, GSH trapping) | k Scaled [5, 6]
1 | C=CCc1ccc2c(c1)OCO2 [Safrole, safrole] | 0.083 pmol Adduct/mg DNA | 0.102 pmol Adduct/mg DNA | 45.9 pmol Adduct/mg DNA | 203.4 pmol Adduct/mg DNA | After admin. of dose 400 mg/kg bw safrole, livers were taken after 24 h, 28, 58, 98, and 140 days after each treatment, after 140 days adduct was 21 pmol/mg DNA | 2.7 times | 17.5 pmol Adduct/mg DNA | cytotoxicity | induced unscheduled DNA synthesis (UDS) | 1.9–5.1 mg/kg bw per day | induce hepatic tumors | positive results | 1900–5100 |  |  |  | 
2 | C=CC(OS(=O)(=O)O)c1cc(OC)c2c(c1)OCO2 (centres unmarked) [1′-Sulfoxymyristicin, 1′-sulfoxymyristicin] |  |  |  |  |  |  |  |  |  |  |  |  |  | 17.6 × 10^−6 ml/min/mg protein | 0.15 ml/hr/g tissue | 16.3 × 10^−6 ml/min/mg protein | 0.14 ml/hr/g tissue
